Results published in patent publication EP0095295B1, “Cyclic peptide derivatives” (ELI LILLY AND COMPANY, priority 1982, dated 1987).

Columns and labels:
[1] = solubility (listed characteristics); format: physicochemical; conditions: water
[2] = fermentation medium, pH values above pH 7.2
Text: In stirred fermentors the pH may be controlled by sensor controllers. Where this is impractical, such as in flask fermentors, pH may be controlled by adding 0.1 molar phosphate buffer to the medium prior to addition of the substrate.

[3] = acute toxicity in mice; format: in vivo; conditions: administered intravenously to mice
Experimental: The acute toxicity of NTrp-p-(n-dodecyloxy)benzoyl-A―21978C, when administered intravenously to mice and expressed as LDso, was 67.5 mg/kg.

SMILES	Solubility [1]	stability (alkaline hydrolysis) [2]	acute toxicity expressed as LDso [3] [mg/kg]
C[C@H](CC(=O)O)[C@@H]1NC(=O)[C@@H](CO)NC(=O)CNC(=O)[C@H](CC(=O)O)NC(=O)[C@@H](C)NC(=O)[C@H](CC(=O)O)NC(=O)[C@H](CCCN)NC(=O)CNC(=O)[C@@H](NC(=O)[C@H](CC(=O)O)NC(=O)[C@H](CC(N)=O)NC(=O)[C@@H](N)Cc2c[nH]c3ccccc23)[C@@H](C)OC(=O)[C@H](CC(=O)c2ccccc2N)NC1=O [A-21978C nucleus]	soluble in water	increasingly subject to alkaline hydrolysis	–
CCCCCCCCCCCCOc1ccc(C(=O)N[C@@H](Cc2c[nH]c3ccccc23)C(=O)N[C@@H](CC(N)=O)C(=O)N[C@@H](CC(=O)O)C(=O)N[C@@H]2C(=O)NCC(=O)N[C@@H](CCCN)C(=O)N[C@@H](CC(=O)O)C(=O)N[C@H](C)C(=O)N[C@@H](CC(=O)O)C(=O)NCC(=O)N[C@H](CO)C(=O)N[C@@H]([C@H](C)CC(=O)O)C(=O)N[C@@H](CC(=O)c3ccccc3N)C(=O)O[C@@H]2C)cc1 [NTrp-p-(n-dodecyloxy)benzoyl-A―21978C, NTrp-P-(n-dodecyloxy)benzoyl-A-21978C Nucleus]	–	–	67.5
